Reference: patent US20240376154A1, “BIS-INTERCALATING PEPTIDES, CONJUGATES AND METHODS OF USE” (ZYMEWORKS BC INC., priority 2023, published 2024)

Tests used:
[1] = test system: tumour cells (at least 4 of a panel of ovarian, breast, lung, pancreatic, placenta, colon cell lines); assay: In vitro cytotoxicity (cell proliferation, CellTiter-Glo), average over tumour cell line panel; type: cell-based; conditions: average pIC50 on all cell lines tested; 5 nights incubation; CellTiter-Glo
Description: The ability of representative compounds of Formula I to inhibit proliferation of tumour cells in vitro was evaluated in at least 4 of the following cell lines: OVCAR-3 (ovarian, ATCC), SKOV-3 (ovarian, ATCC), IGROV-1 (ovarian, national research council of Canada (NRC)), OV-90 (ovarian, ATCC), OVKATE (Ovarian, Japanese Collection of Research Bioresources (JCRB) (JCRB1044)), JIMT-1 (breast, NRC), SK-BR-3 (breast, ATCC), T-47D (breast, ATCC), ZR-75-1 (breast, ATCC), MDA-MB-468 (breast, AddexBio), BT-20 (breast, ATCC), BT-474 (breast, NRC), MDA-MB-175 (breast, AddexBio), A549 (lung, collaborator), NCI-H226 (lung, NRC), NCI-H661 (lung, NRC), NCI-H1573 (lung, ATCC). NCI-H1563 (lung, ATCC), H358 (lung, collaborator), EBC-1 (lung, Xenotech), H1299 (lung, NRC), NCI-H292 (lung, ATCC), HCC817 (lung, ATCC), NCI-H441 (lung, ATCC), MIA-PaCa-2 (pancreatic, ATCC), BxPC-3 (pancreatic, ATCC), Panc-1 (pancreatic, ATCC), AsPC-1 (pancreatic, ATCC), JEG-3 (placenta, AddexBio), HT-29 (colon, ATCC).
Cells were cultured per vendor instructions and in log-phase growth were detached by brief incubation in 0.05% trypsin, then resuspended in respective culturing media at 20,000 cells/mL (except for ZR-75 cells, which were resuspended at 10,000 cells/mL). 50 μL/well (˜1000 cells/well) were transferred to sterile tissue culture (TC)-treated 384-well plates (ThermoFisher Scientific, Catalogue #164610) and incubated overnight at 37° C. with 5% CO2 to allow the cells to adhere to the plate surface. The next day, in a sterile, V-bottom, 96-well plate, test articles were titrated 1:3 in complete growth medium, creating a 10-point dose response titration with compounds at 3.5-times the desired final concentration. 20 μL from each dilution were added to the 384-well plate containing the seeded cells and these plates were incubated at 37° C. with 5% CO2 for 5 nights. Cell viability was quantified by first incubating with 15 μL/well of CellTiter-Glo® (Promega, Catalogue #G7572) for 30 minutes, then measuring luminescence with a microplate luminometer (BioTek® Synergy™ H1 Microplate Reader). IC50 values were determined by GraphPad Prism (GraphPad Software, San Diego, CA).
The results are presented in Table 7.1 and discussed in Example 7. Table 7.1 presents the results as average pIC50 values. pIC50=−log (IC50), thus, for example, pIC50=9 is equivalent to IC50=1 nM, and pIC50=6 is equivalent to IC50=1 μM.

[2] = Lipophilicity by experimental HPLC retention time; type: physicochemical; conditions: HPLC retention time as measure of lipophilicity; C18, 10 to 90% CH3CN/H2O with 0.1% FA over 25 min
Description: The ability to kill neighboring cells (i.e. bystander effect) is an important property for ADC payloads. For a payload comprising a compound of Formula I to be capable of bystander killing, membrane permeability (or transport) is required and the ability of compounds of Formula I to cross cell membranes and exert a cytotoxic effect was expected to be heavily influenced by lipophilicity.
Compounds were analyzed using an Agilent 1260 HPLC (Agilent Technologies, Inc., Santa Clara, CA) equipped with a Diode array detector and using a Phenomenex Kinetex EVO C18 150×4.6, 2.6 μm column (Phenomenex, Torrance, CA), eluting with 10 to 90% CH3CN/H2O with 0.1% FA over 25 min.

herring sperm DNA = assay: DNA melting temperature by differential scanning calorimetry (DSC); type: binding; conditions: DSC; herring sperm DNA; DNA melting temperature = 68° C.
Description: Representative compounds prepared as described in Example 2 were assessed in two complementary DNA-binding assays. Increased melting temperature of herring sperm DNA was measured using differential scanning calorimetry (DSC) and binding kinetics were determined by surface plasmon resonance (SPR) using a short DNA hairpin sequence.
DSC experiments were conducted as described in Leng, 2003, Nucleic Acids Res., 31 (21): […], using a Nano DSC (TA Instruments, New Castle, DE) and analyzed using the NanoAnalyze™ software package. Herring sperm DNA solution (Invitrogen 15634017, 10 mg/mL) was diluted to 1 mg/mL (1.4 mM base pair) in BPE buffer (6 mM Na2HPO4, 2 mM NaH2PO4, 1 mM Na4EDTA, pH 7.0). Test articles (20 μL, 10 mM in DMSO) were added and allowed reach equilibrium binding (>3 h), any insoluble material was removed by low-speed centrifugation, then samples were heated from 25 to 110° C. at a scan rate of 1° C./min. Melting curves were plotted and melting temperature was determined using NanoAnalyze™.

[3] = amide bond; 32-membered ring

Compound | pIC50 (average) [1] | HPLC [2] | DNA melt (° C.) (herring sperm DNA) | ring closure, isolated yield [3]
CC(C)[C@H]1C(=O)O[C@H](C)[C@@H](NC(=O)c2nc3ccccc3cc2O)C(=O)N2CCCC[C@H]2C(=O)NCC(=O)N(C)CC(=O)N(C)[C@@H](C(C)C)C(=O)O[C@H](C)[C@@H](NC(=O)c2nc3ccccc3cc2O)C(=O)N2CCCC[C@H]2C(=O)NCC(=O)N(C)CC(=O)N1C [Compound 22, N,N′-((7R,8R,11S,19aS,26R,27R,30S,38aS)-11,30-diisopropyl-8,12,15,27,31,34-hexamethyl-6,10,13,16,19,25,29,32,35,38-decaoxodotriacontahydro-2H,6H,10H,25H-dipyrido[2,1-b1: 2′,1′-l][1,17]dioxa[4,7,10,13,20,23,26,29]octaazacyclodotriacontine-7,26-diyl)bis(3-hydroxyquinoline-2-carboxamide)] | 7.6 | 21.6 min | 85 °C | 
CC[C@H](C)[C@H]1C(=O)NC[C@@H](NC(=O)c2nc3ccccc3cc2O)C(=O)N2CCCC[C@H]2C(=O)NCC(=O)N(C)CC(=O)N(C)[C@@H]([C@@H](C)CC)C(=O)O[C@H](C)[C@@H](NC(=O)c2nc3ccccc3cc2O)C(=O)N2CCCC[C@H]2C(=O)NCC(=O)N(C)CC(=O)N1C [Compound 30, N,N′-((7R,8R,11S,19aS,26R,30S,38aS)-11,30-di((S)-sec-butyl)-8,12,15,31,34-pentamethyl-6,10,13,16,19,25,29,32,35,38-decaoxotetratriacontahydro-2H,6H,10H-dipyrido[2,1-b1: 2′,1′-l][1]oxa[4,7,10,13,17,20,23,26,29]nonaazacyclodotriacontine-7,26-diyl)bis(3-hydroxyquinoline-2-carboxamide)] | 8.3 | 20.9 min | 85 °C | 
CC(C)[C@H]1C(=O)NC[C@@H](NC(=O)c2nc3ccccc3cc2O)C(=O)N2CCCC[C@H]2C(=O)NCC(=O)N(C)CC(=O)N(C)[C@@H](C(C)C)C(=O)NC[C@@H](NC(=O)c2nc3ccccc3cc2O)C(=O)N2CCCC[C@H]2C(=O)NCC(=O)N(C)CC(=O)N1C [Compound 35, N,N′-((7R,11S,19aS,26R,30S,38aS)-11,30-diisopropyl-12,15,31,34-tetramethyl-6,10,13,16,19,25,29,32,35,38-decaoxohexatriacontahydro-2H,6H-dipyrido[1,2-a:1′,2′-q][1,4,7,10,13,17,20,23,26,29]decaazacyclodotriacontine-7,26-diyl)bis(3-hydroxyquinoline-2-carboxamide)] | 7.3 | 17.1 min | 88 °C | 
CC(C)[C@H]1C(=O)N(C)C[C@@H](NC(=O)c2nc3ccccc3cc2O)C(=O)N2CCCC[C@H]2C(=O)NCC(=O)N(C)CC(=O)N(C)[C@@H](C(C)C)C(=O)N(C)C[C@@H](NC(=O)c2nc3ccccc3cc2O)C(=O)N2CCCC[C@H]2C(=O)NCC(=O)N(C)CC(=O)N1C [Compound 42, N,N′-((7R,11S,19aS,26R,30S,38aS)-11,30-diisopropyl-9,12,15,28,31,34-hexamethyl-6,10,13,16,19,25,29,32,35,38-decaoxohexatriacontahydro-2H,6H-dipyrido[1,2-a:1′,2′-q][1,4,7,10,13,17,20,23,26,29]decaazacyclodotriacontine-7,26-diyl)bis(3-hydroxyquinoline-2-carboxamide)] | 7.3 | 17.7 min | 88 °C | 
Di-tert-butyl ((7R,11S,19aS,26R,30S,38aS)-11,30-diisopropyl-9,12,15,28,31,34-hexamethyl-6,10,13,16,19,25,29,32,35,38-decaoxohexatriacontahydro-2H,6H-dipyrido[1,2-a:1′,2′-q][1,4,7,10,13,17,20,23,26,29]decaazacyclodotriacontine-7,26-diyl)dicarbamate |  |  |  | 65%
Di-tert-butyl ((7R,11S,19aS,26R,30S,38aS)-11,30-diisopropyl-12,15,31,34-tetramethyl-6,10,13,16,19,25,29,32,35,38-decaoxotetratriacontahydro-2H,6H,10H-dipyrido[2,1-b1: 2′,1′-l][1]oxa[4,7,10,13,17,20,23,26,29]nonaazacyclodotriacontine-7,26-diyl)dicarbamate |  |  |  | 86%
Dibenzyl ((7R,11S,19aS,26R,30S,38aS)-11-((R)-1-(tert-butoxy)ethyl)-30-isopropyl-12,15,31,34-tetramethyl-6,10,13,16,19,25,29,32,35,38-decaoxohexatriacontahydro-2H,6H-dipyrido[1,2-a:1′,2′-q][1,4,7,10,13,17,20,23,26,29]decaazacyclodotriacontine-7,26-diyl)dicarbamate |  |  |  | 91%
Tert-butyl (4-nitrobenzyl) ((7R,11R,19aS,26R,30S,38aS)-11-((S)-sec-butyl)-30-isopropyl-12,15,31,34-tetramethyl-6,13,16,19,25,29,32,35,38-nonaoxotetratriacontahydro-2H,6H,10H-dipyrido[2,1-b1: 2′,1′-l][1]oxa[4,7,10,13,17,20,23,26,29]nonaazacyclodotriacontine-7,26-diyl)dicarbamate |  |  |  | 72%
Tert-butyl (4-nitrobenzyl) ((7R,11S,19aS,26R,30S,38aS)-11,30-diisopropyl-12,15,31,34-tetramethyl-6,10,13,16,19,25,32,35,38-nonaoxodotriacontahydro-2H,6H,10H,25H-dipyrido[2,1-b1: 2′,1′-l][1,17]dioxa[4,7,10,13,20,23,26,29]octaazacyclodotriacontine-7,26-diyl)dicarbamate |  |  |  | 50%
Tert-butyl (4-nitrobenzyl) ((7R,11S,19aS,26R,30S,38aS)-11,30-diisopropyl-12,15,31,34-tetramethyl-6,13,16,19,25,29,32,35,38-nonaoxotetratriacontahydro-2H,6H,10H-dipyrido[2,1-b1: 2′,1′-l][1]oxa[4,7,10,13,17,20,23,26,29]nonaazacyclodotriacontine-7,26-diyl)dicarbamate |  |  |  | 68%
di-tert-butyl ((7R,11S,19aS,26R,30S,38aS)-11,30-diisopropyl-12,15,31,34-tetramethyl-6,10,13,16,19,25,29,32,35,38-decaoxohexatriacontahydro-2H,6H-dipyrido[1,2-a:1′,2′-q][1,4,7,10,13,17,20,23,26,29]decaazacyclodotriacontine-7,26-diyl)dicarbamate |  |  |  | 34%
